Assay results taken from patent publication US20240316047A1, “INHIBITORS OF RNA HELICASE DHX9 AND USES THEREOF” (ACCENT THERAPEUTICS, INC., priority 2022, published 2024).

Biological target: Human recombinant DHX9 protein (Homo sapiens (Human), UniProt Q08211)
Test: DHX9 ATPase assay (ADP-Glo)
Assay type: biochemical
Settings: for IC50: read-out: DHX9 Biochemical Inflection Point

Human recombinant DHX9 protein, sequence (Q08211 whole entry): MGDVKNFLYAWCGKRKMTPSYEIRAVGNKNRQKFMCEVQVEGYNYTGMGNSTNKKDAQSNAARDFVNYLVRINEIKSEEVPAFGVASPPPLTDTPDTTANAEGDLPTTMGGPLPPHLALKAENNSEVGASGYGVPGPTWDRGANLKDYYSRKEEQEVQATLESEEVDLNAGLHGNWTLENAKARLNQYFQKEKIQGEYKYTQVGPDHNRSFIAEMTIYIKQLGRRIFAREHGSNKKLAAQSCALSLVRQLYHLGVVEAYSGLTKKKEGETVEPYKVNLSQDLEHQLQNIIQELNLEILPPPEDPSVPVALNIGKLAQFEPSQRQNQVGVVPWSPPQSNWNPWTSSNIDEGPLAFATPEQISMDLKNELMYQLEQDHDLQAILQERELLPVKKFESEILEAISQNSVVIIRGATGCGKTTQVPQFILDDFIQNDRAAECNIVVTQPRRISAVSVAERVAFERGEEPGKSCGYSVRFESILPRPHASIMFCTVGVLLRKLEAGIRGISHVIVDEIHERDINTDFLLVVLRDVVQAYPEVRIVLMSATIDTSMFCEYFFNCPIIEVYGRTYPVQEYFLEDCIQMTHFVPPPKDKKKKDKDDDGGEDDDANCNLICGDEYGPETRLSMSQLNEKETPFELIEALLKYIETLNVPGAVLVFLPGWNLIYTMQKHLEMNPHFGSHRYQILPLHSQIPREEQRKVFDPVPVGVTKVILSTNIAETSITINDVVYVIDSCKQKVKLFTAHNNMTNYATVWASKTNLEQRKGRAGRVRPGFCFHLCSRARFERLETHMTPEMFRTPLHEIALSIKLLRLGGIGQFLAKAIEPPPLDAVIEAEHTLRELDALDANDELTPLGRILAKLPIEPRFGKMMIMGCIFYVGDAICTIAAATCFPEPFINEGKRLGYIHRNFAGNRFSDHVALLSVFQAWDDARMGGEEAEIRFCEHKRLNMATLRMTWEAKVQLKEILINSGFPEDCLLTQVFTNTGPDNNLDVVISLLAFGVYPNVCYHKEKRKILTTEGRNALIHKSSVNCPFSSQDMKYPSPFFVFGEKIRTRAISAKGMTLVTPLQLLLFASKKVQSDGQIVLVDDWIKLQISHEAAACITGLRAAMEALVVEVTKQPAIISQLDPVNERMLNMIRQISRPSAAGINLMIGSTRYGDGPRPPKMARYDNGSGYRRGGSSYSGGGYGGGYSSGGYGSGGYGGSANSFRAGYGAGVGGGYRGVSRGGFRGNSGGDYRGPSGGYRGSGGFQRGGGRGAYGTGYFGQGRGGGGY

Compound	DHX9 Biochemical Max Inhibition	IC50 [nM]
CS(=O)(=O)Nc1cc(Cl)cc(NC(=O)c2cc(-c3ncc(F)cn3)c(Cl)s2)c1 [Example 450]	62.8	79.1
Cc1sc(C(=O)Nc2cc(Cl)cc(NS(C)(=O)=O)c2)cc1-c1ncc(P(C)(C)=O)cn1 [Example 648]	69.1	6.9
CS(=O)(=O)Nc1cc(Cl)cc(NC(=O)c2cc(-c3ccc(N4CC(F)(F)C4)cn3)cs2)c1 [Example 487]	64.3	25.3
Cc1cc(C(=O)Nc2cc(Cl)cc(NS(C)(=O)=O)c2)cn1-c1ccc(N2CCOCC2)cn1 [Example 93]	70.6%	1.7
CS(=O)(=O)Nc1cc(Cl)cc(NC(=O)c2cnn([C@@H]3CC[C@H]3O)c2)c1 (single isomer, unassigned) [Example 306a]	70.6%	127
Cc1nc(COc2cc(F)cnc2-c2cc(C(=O)Nc3cc(Cl)cc(NS(C)(=O)=O)c3)cn2C)cs1 [Example 724]	80.4	19.7
Cc1cc(C)c2cc(C(=O)Nc3cc(Cl)cc(NS(C)(=O)=O)c3)cn2c1 [Example 328]	67.6%	422
Cn1cc(C(=O)Nc2cc(Cl)cc(NS(C)(=O)=O)c2)cc1-c1ncc(N2CCC3(C2)CC3(F)F)cn1 (centres unmarked) [Example 494]	55.9	26.9
COc1cnc(-c2cc(C(=O)Nc3cc(Cl)cc(NS(C)(=O)=O)c3)cn2C)nc1 [Example 549]	73.6	19
Cc1cnc(-c2cc(C(=O)Nc3cc(Cl)cc(NS(C)(=O)=O)c3)cn2C)c(F)c1 [Example 580]	70.5	23.9
CCOc1cnc(-c2cc(C(=O)Nc3cc(Cl)cc(NS(=O)(=O)CC)c3)sc2C)nc1 [Example 365]	78.7%	20.5
CS(=O)(=O)Nc1cc(Cl)cc(NC(=O)c2cnn(-c3cnc(N4CCOCC4)cn3)c2)c1 [Example 388]	52.8%	381
Cn1cc(C(=O)Nc2cc(Cl)cc(NS(C)(=O)=O)c2)cc1-c1ccc(C2CCOCC2)cn1 [Example 704]	78.1	12.5
CN1CC(Oc2cnc(-c3cc(C(=O)Nc4cc(Cl)cc(NS(C)(=O)=O)c4)cn3C)c(F)c2)C1 [Example 611]	65.3	3.8
CCOc1ccc(-c2csc(C(=O)Nc3cc(Cl)cc(NS(C)(=O)=O)c3)c2)nc1 [Example 339]	71%	10.7
CS(=O)(=O)Nc1cc(Cl)cc(NC(=O)c2cccc(-c3ccncc3)c2)c1 [Example 14]	59.6%	353
Cc1cccnc1-c1csc(C(=O)Nc2cc(Cl)cc(N(C)S(C)(=O)=O)c2)c1 [Example 374]	60%	579
CS(=O)(=O)Nc1cc(Cl)cc(NC(=O)c2cc(-c3ccccc3)c(CO)s2)c1 [Example 120, N-(3-chloro-5-(methylsulfonamido)phenyl)-5-(hydroxymethyl)-4-phenylthiophene-2-carboxamide]	72.5%	8.9
CS(=O)(=O)Nc1cc(Cl)cc(NC(=O)c2cc(C3CC3)n(-c3ncc(F)cn3)c2)c1 [Example 451]	73.2	54.3

Compound	DHX9 Biochemical Max Inhibition	IC50 [nM]
CC(=O)N1CCN(c2cnc(-n3cc(C(=O)Nc4cc(Br)cc(NS(C)(=O)=O)c4)cn3)c(C)c2)CC1 [Example 87]	55.7%	26.1
CS(=O)(=O)Nc1cc(Cl)cc(NC(=O)c2cc3c(F)cccc3s2)c1 [Example 296]	69.9%	125
CS(=O)(=O)Nc1cc(Cl)cc(NC(=O)c2cc(CO)n(-c3ncccc3OCc3cncc(F)c3)c2)c1 [Example 723]	84.3	1.6
Cc1cc(N2CC(F)(F)C2)cnc1-n1cc(C(=O)Nc2cc(Cl)cc(NS(C)(=O)=O)c2)cc1C [Example 419]	78.6	18.6
CN1CCC(n2cc(C(=O)Nc3cc(Cl)cc(NS(C)(=O)=O)c3)cn2)CC1=O (centres unmarked) [Example 307]	70.4%	143
CS(=O)(=O)Nc1cc(Cl)cc(NC(=O)c2cc3ccccn3c2)c1 [Example 209]	64%	89.4
CS(=O)(=O)Nc1cc(F)cc(NC(=O)c2cc(Br)cs2)c1 [Example 71, 4-bromo-N-(3-fluoro-5-(methylsulfonamido)phenyl)thiophene-2-carboxamide]	77.8%	171
CS(=O)(=O)Nc1cc(Cl)cc(NC(=O)c2cnn(CCO)c2)c1 [Example 127]	66.4%	138
Cc1cc(F)cnc1-c1cc(C(=O)Nc2cc(Cl)cc(NS(C)(=O)=O)c2)sc1C [Example 348]	74.6%	31.8
Cc1cc(C(=O)Nc2cc(Cl)cc(NS(C)(=O)=O)c2)cn1-c1ncc(OC(C)(C)C)cc1F [Example 662]	66.1	68
Cc1sc(C(=O)Nc2cc(Cl)cc(NS(C)(=O)=O)c2)cc1-n1cc(F)cn1 [Example 439]	61.5	18.7
CS(=O)(=O)Nc1cc(Cl)cc(NC(=O)c2cnn(-c3c(F)cccc3OCc3cncc(F)c3)c2)c1 [Example 718]	72.7	15.7
Cn1cc(C(=O)Nc2cc(Cl)cc(NS(C)(=O)=O)c2)cc1-c1ncc(C(F)(F)F)cn1 [Example 571]	71.3	21.1
Cc1sc(C(=O)Nc2cc(Cl)cc(NS(C)(=O)=O)c2)cc1-c1ncc(N2CC(F)(F)C2)cc1OC(F)F [Example 536]	69.7	45.3
CS(=O)(=O)Nc1cc(Cl)cc(NC(=O)c2cc(-c3ncc(C(F)(F)F)cn3)cs2)c1 [Example 369]	61.5%	57.6
Cc1cc(C(=O)Nc2cc(Cl)cc(NS(C)(=O)=O)c2)cn1-c1ncc(N2CCCC2=O)cn1 [Example 401]	70.3	10.6
Cc1sc(C(=O)Nc2cc(Cl)cc(NS(=O)(=O)CCO)c2)cc1-c1ncc(OC(C)C)cn1 [Example 582]	49.9	287
Cn1cc(C(=O)Nc2cc(Cl)cc(NS(C)(=O)=O)c2)cc1-c1ncc(F)cc1/C=C/c1cncc(F)c1 [Example 729]	45.5	114
CN1CCN(c2csc(C(=O)Nc3cc(Cl)cc(NS(C)(=O)=O)c3)c2)C1=O [Example 431]	73.5	8.6

Compound	DHX9 Biochemical Max Inhibition	IC50 [nM]
Cc1cccnc1-c1cc(C(=O)Nc2cc(Cl)cc(NS(C)(=O)=O)c2)cn1CC(F)F [Example 143, N-(3-chloro-5-(methylsulfonamido)phenyl)-1-(2,2-difluoroethyl)-5-(3-methylpyridin-2-yl)-1H-pyrrole-3-carboxamide]	66.8%	–
Cc1sc(C(=O)Nc2cc(Cl)cc(NS(C)(=O)=O)c2)cc1-c1ccc(C#N)cn1 [Example 377]	70.6%	21.2
COc1cnc(-c2cc(C(=O)Nc3cc(Cl)cc(NS(C)(=O)=O)c3)sc2C)c(F)c1 [Example 358]	84.3%	38.4
CS(=O)(=O)Nc1cc(Cl)cc(NC(=O)c2nc(-c3ccccc3)c[nH]2)c1 [Example 9]	44.5%	390
CN1C(=O)N(c2csc(C(=O)Nc3cc(Cl)cc(NS(C)(=O)=O)c3)c2)C(=O)C1(C)C [Example 432]	75.4	12.1
CCc1sc(C(=O)Nc2cc(Cl)cc(NS(C)(=O)=O)c2)cc1-c1ncccc1F [Example 587]	70.9	16.7
Cc1ncc(OCc2cc(F)cc(F)c2)c(-c2cc(C(=O)Nc3cc(Cl)cc(NS(C)(=O)=O)c3)cn2C)n1 [Example 734]	71.2	6.6
Cn1cc(C(=O)Nc2cc(Cl)cc(NS(C)(=O)=O)c2)cc1-c1ncc(OC2CN(C(=O)C3CC3)C2)cc1F [Example 697]	59.5	40.9
CS(=O)(=O)Nc1cc(Cl)cc(NC(=O)c2cnn(-c3ncccc3OCc3cccc(F)c3)c2)c1 [Example 65]	72.6%	5.5
CS(=O)(=O)Nc1cc(I)cc(NC(=O)c2cc(-c3ccccc3)cs2)c1 [Example 16]	46.3%	251
Cc1sc(C(=O)Nc2cc(Cl)cc(NS(C)(=O)=O)c2)cc1-c1ncc(C#N)cc1F [Example 375]	64.6%	34.6
Cc1cc(C(=O)Nc2cc(Cl)cc(NS(C)(=O)=O)c2)cn1-c1ccc(N2CC(F)(F)C2)cn1 [Example 399]	72.1	11.4
CC(O)c1cc(C(=O)Nc2cc(Cl)cc(NS(C)(=O)=O)c2)cn1-c1ccccn1 (centres unmarked) [Example 287]	82.6%	19.1
CS(=O)(=O)Nc1cc(Br)cc(NC(=O)c2cnn(-c3ccccc3OCc3ccccc3)c2)c1 [Example 51]	61.1%	145
CSc1cccnc1-n1cc(C(=O)Nc2cc(Cl)cc(NS(C)(=O)=O)c2)cn1 [Example 219]	62.3%	40.6
Cc1ccc2cc(C(=O)Nc3cc(Cl)cc(NS(C)(=O)=O)c3)cn2c1 [Example 300]	58.5%	132
Cc1noc(C)c1COc1cc(F)cnc1-c1cc(C(=O)Nc2cc(Cl)cc(NS(C)(=O)=O)c2)cn1C [Example 725]	74	36.5
Cn1cc(C(=O)Nc2cc(Cl)cc(NS(C)(=O)=O)c2)cc1-c1ncc(F)cc1OCc1cnnn1C [Example 726]	88.1	17.5
Cc1sc(C(=O)Nc2cc(Cl)cc(NS(C)(=O)=O)c2)cc1-c1ncc(F)cc1N1CCS(=O)(=O)CC1 [Example 503]	63.7	39.7
